Where a name gives a salt, the structure may show the parent alone.
Tested on: MTT (mouse pheochromocytoma)
Experiment: IC50 of cell viability (ATP content)
Conditions: (24 or 48 h)
Procedure, shortened: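 Library compounds in DMSO (23 nl by pintool, 8 concentrations, final 0.5 nM to 46 µM) were applied for 24 or 48 hrs to MTT mouse pheochromocytoma cells that had been cultured overnight at 37°C, 5% CO2 in white 1536-well plates. Cell viability was measured by CellTiter-Glo ATP luminescence, read after 15 minutes, with positive-control wells set at 100% and DMSO wells at 0%. A four-parameter logistic fit of the normalised signals yielded the IC50.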

Compound	IC50 of cell viability [µM]
N=C(N)c1ccc(/C=C/c2ccc(C(=N)N)cc2O)cc1 [HYDROXYSTILBAMIDINE ISETHIONATE]	> 46
CC1CNc2c(cccc2S(=O)(=O)NC(CCCNC(=N)N)C(=O)N2CC[C@@H](C)C[C@@H]2C(=O)O)C1 (stereo partly drawn) [ARGATROBAN]	> 46
C/C=C/c1ccc(OC)cc1 [Anethole]	> 46
O=C(Oc1ccccc1)c1cccc(C(=O)Oc2ccccc2)c1 [Diphenyl isophthalate]	> 46
CCOC(=O)\C1=C\[C@]2(CC)CCCN3CCC4=C([C@H]23)[N]1C5=C4C=CC=C5 [VINPOCETINE]	> 46
Nc1cc(N2CCCCC2)nc(N)[n+]1[O-] [MINOXIDIL]	> 46
Clc1ccccc1CN1CCc2sccc2C1 [TICLOPIDINE]	> 46
O=[S+]1([O-])c2cccc3cccc(c23)N1CCCN1CCN(c2ccc(F)cc2)CC1 [FANANSERINUM]	> 46
CCN(CC)CCOC(=O)C1(C2CCCCC2)CCCCC1 [Dicyclomine]	> 46
CCCCCCC(=O)O[C@@H]1CC[C@H]2[C@@H]3CCc4cc(O)ccc4[C@H]3CC[C@]12C [Estradiol enanthate]	> 46
FC(F)(F)C(Cl)Br (stereo not drawn) [Halothane]	> 46
CCN1CCC[C@H]1CNC(=O)c1c(O)c(Cl)cc(Cl)c1OC [S(-)-RACLOPRIDE]	> 46
CC(=O)OCC(=O)[C@@]12OC3(CCCC3)OC1CC4C5CCC/6=C/C(=O)/C=C\[C@@]6(C)[C@]5(F)C(O)C[C@@]24C (stereo partly drawn) [AMCINONIDE]	> 46
CC(=O)N[C@@H](Cc1ccc(O)cc1)C(=O)O [N-ACETYL-TYROSINE]	> 46
NCCS [Cysteamine]	> 46
C1C\N=C(\NC(C2CC2)C3CC3)O1 [RILMENIDINE]	> 46
COc1ccc(C(=O)N2CCN(CC(=O)N3CCOCC3)CC2)cc1 [Molracetam]	> 46
Cc1ccccc1C(OCCN(C)C)c1ccccc1.O=C(O)CC(O)(CC(=O)O)C(=O)O (stereo not drawn) [ORPHENADRINE CITRATE]	> 46
COC1C(OC(=O)/C=C/C=C/C=C/C=C/C(=O)O)CCC2(CO2)C1C1(C)OC1CC=C(C)C (stereo not drawn) [FUMAGILLIN]	> 46
C[N+](C)(C)CC(=O)O [Betaine hydrochloride]	> 46
OC(=O)C/1=C/C(=O)C2=C(O1)C=CC=C2 [CHROMOCARB]	> 46
CN(C)C(=O)Oc1cccc([N+](C)(C)C)c1 [NEOSTIGMINE]	> 46
COc1cc2c3cc1Oc1cc(ccc1O)C[C@@H]1c4c(cc(OC)c(O)c4Oc4ccc(cc4)C[C@@H]3N(C)CC2)CC[N+]1(C)C [(+)-TUBOCURARINE]	> 46
CC1(C)OC[C@@H]2O[C@@]3(C(=O)O)OC(C)(C)O[C@@H]3[C@@H]2O1 [Dikegulac]	> 46
CC1\N=C(N)/OC1C2=CC=CC=C2 (stereo not drawn) [(?)-cis-(4RS,5SR)-2-Amino-4-methyl-5-phenyl-2-oxazoline]	> 46
CCOC(=O)NC(O)C(Cl)(Cl)Cl (stereo not drawn) [Carbocloral]	> 46

Compound	IC50 of cell viability [µM]
O=C(O)c1cc(O)nc(O)n1 [Orotic acid]	> 46
O=C(O)[C@@H]1CCCN1 (racemic) [DL-Proline]	> 46
Nc1ccccc1N [1,2-Phenylenediamine]	> 46
O=C(O)Cc1sc(-c2ccccc2)nc1-c1ccc(Cl)cc1 [Fentiazac]	> 46
C[N+]1(C)CCCCC1COC(=O)C(O)(c1ccccc1)c1ccccc1 (stereo not drawn) [BEVONIUM METHYLSULFATE]	> 46
CCN1CCc2nc(N)oc2CC1.Cl.Cl [B-HT 933 dihydrochloride]	> 46
CCN(CC)C(=O)c1cccc(C)c1 [DIETHYLTOLUAMIDE]	> 46
CCCCc1cc2ccccc2c(OCCN(C)C)n1 [Dimethisoquin hydrochloride]	> 46
C[C@H](CSC(=O)c1ccccc1)C(=O)N1C[C@@H](Sc2ccccc2)C[C@H]1C(=O)O [ZOFENOPRIL]	> 46
CN1C[C@H](C(=O)N[C@]2(C)O[C@@]3(O)[C@@H]4CCCN4C(=O)[C@H](Cc4ccccc4)N3C2=O)C[C@@H]2c3cccc4[nH]cc(c34)C[C@H]21 [DIHYDROERGOTAMINE]	> 46
CCC(=O)Nc1ccc(O)cc1 [Parapropamol]	> 46
C=C1CC2C3C=C(C)C4=CC(=O)CCC4(C)C3CCC2(C)[C@@]1(OC(C)=O)C(C)=O (stereo partly drawn)	> 46
C[S+](=O)([O-])c1ccc([C@H](O)[C@H](CO)NC(=O)C(Cl)Cl)cc1 [Thiamphenicol]	> 46
ClC(Cl)Cl [Chloroform]	> 46
CC12NC(Cc3ccccc31)c1ccccc12.O=C(O)/C=C/C(=O)O (single isomer, unassigned; (-)) [(-)-MK-801 hydrogen maleate]	> 46
COC(=O)[C@H](Cc1ccccc1)NC(=O)[C@@H](N)CC(=O)O [Aspartame]	> 46
O=[S+]([O-])(O)CCS [MESNA]	> 46
CNC(=O)Oc1cccc2ccccc12 [Carbaryl]	> 46
CN(C)CCO[C@](C)(c1ccccc1)c1ccccn1.O=C(O)CCC(=O)O [Doxylamine succinate]	> 46
Cn1nnc2c(C(N)=O)ncn2c1=O [TEMOZOLOMIDE]	> 46
Cc1oc(=O)oc1CN1CCN(c2cc3c(cc2F)c(=O)c(C(=O)O)c2n3C(C)S2)CC1 (stereo not drawn) [Prulifloxacin]	> 46
NC1CCN(c2nc3c(cc2F)c(=O)c(C(=O)O)cn3-c2ccc(F)cc2F)C1 (stereo not drawn) [TOSUFLOXACIN TOSILATE]	> 46
CN(C)[C@@H]\1[C@H]2C[C@H]3\C(=C(\O)[C@@]2(O)C(=O)\C(=C1O)C(=O)NCN4CCCC4)C(=O)C5=C(C=CC=C5O)[C@]3(C)O [Solvocillin]	> 46
O=C([O-])c1ccccc1Nc1cc(Cl)ccc1C(=O)[O-] [LOBENZARIT DISODIUM]	> 46
CC1=NN=C2C\N=C(\C3=C(Cl)C=CC=C3)C4=C(C=CC(=C4)Cl)[N]12 [TRIAZOLAM]	> 46
NCCC(O)(P(=O)(O)O)P(=O)(O)O [Pamidronate disodium]	> 46

Compound	IC50 of cell viability [µM]
CC(C)=CC1C(C(=O)OCc2cccc(Oc3ccccc3)c2)C1(C)C (stereo not drawn) [PHENOTHRIN]	> 46
Cc1c(C)c2c(c(C)c1O)CC[C@@](C)(CCC[C@H](C)CCC[C@H](C)CCCC(C)C)O2 [Alpha-Vitamin E]	> 46
[O]=[Cd] [Cadmium oxide]	> 46
N[S+](=O)([O-])c1cc([C@]2(O)NC(=O)c3ccccc32)ccc1Cl [Chlorthalidone]	> 46
C#CCN(C)CCCOc1ccc(Cl)cc1Cl.Cl [Clorgyline hydrochloride]	> 46
CC(=O)OCC(=O)C1(O)CCC2C3CCC/4=C/C(=O)CCC4(C)C3C(O)CC12C (stereo not drawn) [Hydrocortisone acetate]	> 46
C[S+](C)CC[C@H](N)C(=O)O [METHYLMETHIONINE SULFONIUM CHLORIDE]	> 46
CCNC(=O)NCc1cccc(Cl)c1 [Lozilurea]	> 46
CC(NC(CCc1ccccc1)C(=O)O)C(=O)N1CCCC1C(=O)O (stereo not drawn) [Enalapril acid]	> 46
NCC(O)c1cccc(O)c1 (stereo not drawn) [NORFENEFRINE HYDROCHLORIDE]	> 46
O=C1CCC(N2C(=O)c3ccccc3C2=O)C(=O)N1 (racemic) [(+-)-Thalidomide]	> 46
CC(C)(C(=O)O)c1ccc(C(O)CCCN2CCC(C(O)(c3ccccc3)c3ccccc3)CC2)cc1 (stereo not drawn) [Fexofenadine]	> 46
C1CNCCN1 [Piperazine]	> 46
N[C@H](CC(=O)O)C(=O)O [D-ASPARTIC ACID]	> 46
O=C(c1ccccc1)c1ccc2n1CCC2C(=O)O (stereo not drawn) [Ketorolac tris salt]	> 46
N=C(N)NCc1cccc(I)c1 [m-Iodobenzylguanidine hemisulfate]	> 46
Cn1cc(O)nc1NC(=O)Nc1cccc(Cl)c1 [FENOBAMUM]	> 46
CN1C2CCC1CC(OC(c1ccccc1)c1ccccc1)C2.O=[S+]([O-])(O)O (stereo not drawn) [BENZTROPINE]	> 46
C#CCOC(C(=O)OCCN(C)C)(c1ccccc1)c1ccccc1 [PARGEVERINUM]	> 46
O=C(O)CCC(=O)c1ccc(-c2ccccc2)cc1 [Fenbufen]	> 46
CNC(C)(C)Cc1ccccc1 [Mephentermine hemisulfate]	> 46
S=C=S [Carbon disulfide]	> 46
C[C@@H](O)[C@@H]1NC(=O)[C@H](CCCCN)NC(=O)[C@@H](Cc2c[nH]c3ccccc23)NC(=O)[C@H](Cc2ccccc2)NC(=O)[C@@H](NC(=O)[C@H](N)Cc2ccccc2)CSSC[C@@H](C(=O)N[C@H](CO)[C@@H](C)O)NC1=O [Octreotide]	> 46
CC(=O)O[C@H]1CC[C@H]2[C@@H]3CCC4=CC(=O)CCC4=C3C=C[C@]12C [TRENBOLONE ACETATE]	> 46
O=C(Cn1ccnc1[N+](=O)[O-])NCc1ccccc1 [Benznidazol]	> 46
CCC1(c2ccccc2)C(=O)NCNC1=O [PRIMIDONE]	> 46

Reference: the supplement of paper PMC3974653
